Measurements as given in US20070049599A1, “Use of bh4 for the treatment of respiratory diseases” (Altana Pharma AG, priority 2003, published 2007).

Tests used:
human iNOS [1] = target: T1, human iNOS (Homo sapiens, UniProt P35228); assay: Promotion of NO synthesis in DAHP-pretreated HEK293iNOS cells (Griess assay); type: cell-based; details: HEK293iNOS cells pretreated with 10 mM DAHP, increasing concentrations, concentration-dependent, FIG. 2
Protocol: HEK293 cells stably transfected with human iNOS under the transcriptional control of a PonA-inducible promoter were treated with 10 mM DAHP (diaminohydroxypyridin), an inhibitor of GTP cyclohydrolase (Xie et al., J. Biol. Chem. 273, 21091-21098, 1998), to block endogenous production of tetrahydrobiopterin. After stimulating iNOS expression with […] PonA for 24 h and concomitant treatment with 10 mM DAHP increasing concentrations of BH4 or sepiapterin were added and the NO production was measured using the Griess assay to analyse the stable NO products nitrite and nitrate. Nitrate was reduced to nitrite by nitrate reductase and its absorption was determined at 544 nm in a Wallac spectrophotometer.

[2] = test system: EA.hy926 endothelial cells; assay: Conversion of BH4 derivatives into BH4 by endothelial cells (intracellular biopterin content by HPLC); type: cell-based; details: 100 μM, FIG. 1
Protocol: Endothelial cells (HUVEC and ERhy926) were cultivated in the appropriate culture medium and treated with sepiapterin and BH4 (100 μM each) respectively, for the indicated time periods. After excess wash steps using PBS the cells were lysed and the biopterin content was analysed by reversed phase HPLC with fluorescence detection (excitation: 350 nm, emission: 450 nm) after iodine reduction and semi-purification on Dowex beads as described in detail in Hesslinger et al., J. Biol. Chem. 273, 21616-21622, 1998.

human iNOS [3] = target: T1, human iNOS; assay: Superoxide production from recombinant BH4-free and arginine-free human iNOS (ESR, CPH spin trap); type: biochemical; design: made in house; host or cells: E. coli; details: incubation with arginine alone, FIG. 3b
Protocol: Recombinant human iNOS was overexpressed in E. coli and purified using an ADP sepharose column and subsequently a Superdex column to yield BH4free and arginine-free iNOS. 1 μg of human iNOS was incubated together with 200 μM NADPH and 1 mM CPH. After incubation at 37° C. for 60 min the superoxide produced was measured as stable CPH radical in a Bruker e-scan device via electron spin resonance spectroscopy (ESR).

Compound | NO synthesis from iNOS (nitrite/nitrate, Griess assay) (human iNOS [1]) | conversion of exogenous compound into intracellular biopterin [2] | reduction of superoxide production (human iNOS [3])
C[C@H](O)C(=O)C1=Nc2c(nc(N)[nH]c2=O)NC1 [sepiapterin] | promoted NO synthesis | effectively converted into intracellular biopterin within a few minutes | –
N=C(N)NCCC[C@H](N)C(=O)O [arginine] | – | – | 50%
